Measured values taken from patent publication US11365187B2, “Pesticidally active pyrazole derivatives” (SYNGENTA PARTICIPATIONS AG, priority 2017, dated 2022).
Like-named read-outs stand apart in the source and are kept apart here.

Key:
Type in all cases: in vivo
[1] = system: Spodoptera littoralis (Egyptian cotton leaf worm); assay: Spodoptera littoralis feeding/contact activity on cotton leaf discs; details: foliar, 72 h
Description: Spodoptera littoralis (Egyptian cotton leaf worm): Feeding/contact activity
Cotton leaf discs were placed onto agar in 24-well microtiter plates and sprayed with aqueous test solutions prepared from 10′000 ppm DMSO stock solutions. After drying the leaf discs were infested with five L1 larvae. The samples were assessed for mortality 3 days after infestation. […] 2, 3, 4, 5, 6, 7, 8, 9, 10, 11, 12, 13, 14, 15, 16, 17, 18, 19, 20, 21, 22, 23, 24, 25, 26, 27, 28 and 29.

[2] = system: Diabrotica balteata (Corn root worm); assay: Diabrotica balteata (Corn root worm) mortality on sprayed maize sprouts; details: 96 h
Description: Diabrotica balteata (Corn root worm):
Maize sprouts placed onto an agar layer in 24-well microtiter plates were treated with aqueous test solutions prepared from 10′000 ppm DMSO stock solutions by spraying. After drying, the plates were infested with L2 larvae (6 to 10 per well). The samples were assessed for mortality 4 days after infestation.

[3] = system: Euschistus heros (Neotropical Brown Stink Bug); assay: Euschistus heros feeding/contact activity on soybean leaves; details: 120 h
Description: Euschistus heros (Neotropical Brown Stink Bug): Feeding/contact activity
Soybean leaves on agar in 24-well microtiter plates were sprayed with aqueous test solutions prepared from 10′000 ppm DMSO stock solutions. After drying the leaves were infested with N2 nymphs. The samples were assessed for mortality 5 days after infestation.

[4] = system: Plutella xylostella (Diamond back moth); assay: Plutella xylostella feeding/contact activity on artificial diet; details: 120 h
Description: Plutella xylostella (Diamond back moth): Feeding/contact activity
24-well microtiter plates with artificial diet were treated with aqueous test solutions prepared from 10′000 ppm DMSO stock solutions by pipetting. After drying, the plates were infested with L2 larvae (10 to 15 per well). The samples were assessed for mortality 5 days after infestation.

[5] = system: Thrips tabaci (Onion thrips); assay: Thrips tabaci feeding/contact activity on sunflower leaf discs; details: foliar, 144 h
Description: Thrips tabaci (Onion thrips): Feeding/Contact activity
(§1) Sunflower leaf discs were placed on agar in 24-well microtiter plates and sprayed with aqueous test solutions prepared from 10′000 ppm DMSO stock solutions. After drying the leaf discs were infested with a thrips population of mixed ages. The samples were assessed for mortality 6 days after infestation.

[6] = system: Tetranychus urticae (Two-spotted spider mite); assay: Tetranychus urticae feeding/contact activity on bean leaf discs; details: foliar, 192 h, read-out: mortality on mixed population (mobile stages)
Description: Tetranychus urticae (Two-spotted spider mite): Feeding/contact activity
as §1, with “Bean” for “Sunflower”, “discs” for “discs were placed”, “were” for “and”, “mite” for “thrips”, “on mixed population (mobile stages) 8” for “6”

[7] = system: Myzus persicae (Green peach aphid); assay: Myzus persicae feeding/contact activity on sunflower leaf discs; details: foliar, 144 h
Description: Myzus persicae (Green peach aphid): Feeding/Contact activity
Sunflower leaf discs were placed onto agar in a 24-well microtiter plate and sprayed with aqueous test solutions prepared from 10′000 ppm DMSO stock solutions. After drying, the leaf discs were infested with an aphid population of mixed ages. The samples were assessed for mortality 6 days after infestation.

[8] = application rate 200 ppm, L1 larvae, assessed 3 days after infestation, read-out: mortality
[9] = application rate 200 ppm, L2 larvae, assessed 4 days after infestation, read-out: mortality
[10] = application rate 200 ppm, N2 nymphs, assessed 5 days after infestation, read-out: mortality
[11] = application rate 200 ppm, L2 larvae, assessed 5 days after infestation, read-out: mortality
[12] = application rate 200 ppm, thrips population of mixed ages, assessed 6 days after infestation, read-out: mortality
[13] = application rate 200 ppm, mite population of mixed ages, assessed 8 days after infestation
[14] = application rate 200 ppm, aphid population of mixed ages, assessed 6 days after infestation, read-out: mortality

Measured: mortality at 200 ppm

CN(C(=O)c1cc(-c2cnn(-c3c(OC(F)F)c(C(F)(C(F)(F)F)C(F)(F)F)nn3C)c2)ccc1Cl)C1(C#N)CC1 [Example 4, 2-chloro-N-(1-cyanocyclopropyl)-5-[1-[4-(difluoromethoxy)-2-methyl-5-[1,2,2,2-tetrafluoro-1-(trifluoromethyl)ethyl]pyrazol-3-yl]pyrazol-4-yl]-N-methyl-benzamide]
≥ 80%: [1]; [8] | [2]; [9] | [3]; [10] | [4]; [11] | [5]; [12] | [6]; [13] | [7]; [14]

CC(=O)N(C(=O)c1cc(-c2cnn(-c3c(OC(F)F)c(C(F)(C(F)(F)F)C(F)(F)F)nn3C)c2)ccc1Cl)C1(C#N)CC1 [Example 12, N-acetyl-2-chloro-N-(1-cyanocyclopropyl)-5-[1-[4-(difluoromethoxy)-2-methyl-5-[1,2,2,2-tetrafluoro-1-(trifluoromethyl)ethyl]pyrazol-3-yl]pyrazol-4-yl]benzamide]
≥ 80%: [1]; [8] | [2]; [9] | [3]; [10] | [4]; [11] | [5]; [12] | [6]; [13] | [7]; [14]

COC(=O)N(C(=O)c1cc(-c2cnn(-c3c(OC(F)F)c(C(F)(C(F)(F)F)C(F)(F)F)nn3C)c2)ccc1Cl)C1(C#N)CC1 [Example 18, methyl N-[2-chloro-5-[1-[4-(difluoromethoxy)-2-methyl-5-[1,2,2,2-tetrafluoro-1-(trifluoromethyl)ethyl]pyrazol-3-yl]pyrazol-4-yl]benzoyl]-N-(1-cyanocyclopropyl)carbamate]
≥ 80%: [1] | [2] | [3] | [4] | [5] | [6] | [7]

Cn1nc(C(F)(C(F)(F)F)C(F)(F)F)c(OC(F)F)c1-n1cc(-c2cnc(Cl)c(C(=O)NC3(C#N)CC3)c2)cn1 [Example 19, 2-chloro-N-(1-cyanocyclopropyl)-5-[1-[4-(difluoromethoxy)-2-methyl-5-[1,2,2,2-tetrafluoro-1-(trifluoromethyl)ethyl]pyrazol-3-yl]pyrazol-4-yl]pyridine-3-carboxamide]
≥ 80%: [1]; [8] | [2]; [9] | [3]; [10] | [4]; [11] | [5]; [12] | [6]; [13] | [7]; [14]

COCCN(C(=O)c1cc(-c2cnn(-c3c(OC(F)F)c(C(F)(C(F)(F)F)C(F)(F)F)nn3C)c2)ccc1Cl)C1(C#N)CC1 [Example 7, 2-chloro-N-(1-cyanocyclopropyl)-5-[1-[4-(difluoromethoxy)-2-methyl-5-[1,2,2,2-tetrafluoro-1-(trifluoromethyl)ethyl]pyrazol-3-yl]pyrazol-4-yl]-N-(2-methoxyethyl)benzamide]
≥ 80%: [1]; [8] | [3]; [10] | [4]; [11] | [6]; [13] | [7]; [14]

CCOC(=O)N(C(=O)c1cc(-c2cnn(-c3c(OC(F)F)c(C(F)(C(F)(F)F)C(F)(F)F)nn3C)c2)ccc1Cl)C1(C#N)CC1 [Example 8, ethyl N-[2-chloro-5-[1-[4-(difluoromethoxy)-2-methyl-5-[1,2,2,2-tetrafluoro-1-(trifluoromethyl)ethyl]pyrazol-3-yl]pyrazol-4-yl]benzoyl]-N-(1-cyanocyclopropyl)carbamate]
≥ 80%: [1] | [3] | [4] | [6] | [7]
